Where no end group is shown, it is not given here.
Legend:
[1] = tested on: patients undergoing ERCP; experiment: Return to pre-ERCP activity levels and return to work in ERCP patients; format: in vivo, human
From the text: Additional secondary efficacy variables assessed were return to baseline (pre-ERCP levels of activity) and the time in days to return of pre-ERCP activity levels. There was a small difference in the percentage of patients reporting return to baseline activity within the follow-up period (2 to 4 days post-ERCP) favoring the placebo group (p=0.0230) (49.78% vs. 42.09%). Interims of the mean number of days required to achieve pre-ERCP activity levels, was 0.6 (±1.0) for the sPS group and 0.7 (±0.9) for the placebo group. An attempt was made to obtain information on return to work. Relatively few data points were able to be collected, however, because a large percentage of patients were not working pre-ERCP (retired, too ill, etc.) among the 185 patients (95 in the sPS group and 90 in the placebo group) providing relevant responses for this variable, 46.32% of sPS patients and 50.00% of placebo patients reported returning to work within the follow-up period.

[2] = tested on: post-ERCP pancreatitis in patients undergoing ERCP; experiment: Randomized, double-blind, placebo controlled study in ERCP patients: incidence and severity of post-ERCP pancreatitis; format: in vivo, human
From the text: Pancreatitis is the most common medically significant complication following Endoscopic Retrograde Cholangio-Pancreatography ([…]) procedures. The symptoms and pathophysiology of post-ERCP pancreatitis and acute pancreatitis are identical, and patients at risk for postERCP pancreatitis or suffering early signs of the condition provide good data for evaluation of therapies for acute pancreatitis. An evaluation of the clinical efficacy of dosages of secretin to treat or prevent the onset of pancreatitis in patients undergoing ERCP is described below.
A total of 979 ERCP patients were randomized, received study drug and were evaluable for efficacy. The demographic profiles of the patients who were randomized and received treatment with study drug by treatment group are summarized in Table 1.
The primary efficacy variable was the overall incidence of post-ERCP pancreatitis.
The difference in the incidence of post-ERCP pancreatitis between the two treatment groups in favor of the sPS treated patients was highly significant. The p-value of 0.0161 was sufficient to allow the study to be discontinued on the basis of the planned interim analysis of approximately 1,000 evaluable patients. The severity of the cases of post-ERCP pancreatitis, which did occur in each treatment group is depicted in Table 4 below.
The frequency of post-ERCP pancreatitis was evaluated in numerous patient sub-populations defined by the types of procedures performed during the ERCP.

[3] = number of cases (% of 44 pancreatitis cases), N = 488/44

For “synthetic porcine secretin (HSDGTFTSELSRLRDSARLQRLLQGLV; not fully specified; ends and bridges not checked; UniProt P63298 33-59, looked up) [SPS, Study drug; abbreviation not defined]”, the “mean number of days required to achieve pre-ERCP activity levels” value ([1]; mean (±SD)) was 0.6 (±1.0) days, the “patients reporting returning to work” value ([1]; within the follow-up period, 95 patients in the sPS group, not significant) was 46.32% and the “Post-ERCP Pancreatitis Severity Rating (%): Severe” value [2, 3] was 1 (2.27) %. The “Post-ERCP Pancreatitis Severity Rating (%): Unknown” value [2, 3] was 7 (15.91) %, the “Post-ERCP Pancreatitis Severity Rating (%): Total” value ([2]; number of cases (% of 44 pancreatitis cases), N = 488/44, overall p 0.6278) was 44 (100.0) % and the “Post-ERCP Pancreatitis Severity Rating (%): Moderate” value ([2]; number of cases (% of 44 pancreatitis cases), N = 488/44, p 0.117) was 9 (20.45) %. For the same substance, the “Post-ERCP Pancreatitis Severity Rating (%): Minimal” value ([2]; number of cases (% of 44 pancreatitis cases), N = 488/44, p 0.289) was 13 (29.55) %, the “Post-ERCP Pancreatitis Severity Rating (%): Mild” value ([2]; number of cases (% of 44 pancreatitis cases), N = 488/44, p 0.590) was 14 (31.82) % and the “Overall Incidence of Post-ERCP Pancreatitis, No (%)” value ([2]; number of patients (%), N = 488) was 444 (90.98) %. The “Overall Incidence of Post-ERCP Pancreatitis, Yes (%)” value ([2]; number of patients (%), N = 488, p 0.0161 vs placebo, Fisher Exact Test) was 44 (9.02) %, the “Incidence of Post-ERCP Pancreatitis, No (%)” value ([2]; sub-population Cannulation of CBD, N = 361) was 334 (92.52) % and the “Incidence of Post-ERCP Pancreatitis, Yes (%)” value ([2]; sub-population Cannulation of CBD, N = 361, p 0.0010) was 27 (7.48) %. The “Incidence of Post-ERCP Pancreatitis, No (%)” value ([2]; sub-population Cannulation of Pancreatic Duct, N = 220) was 190 (86.36) %, the “Incidence of Post-ERCP Pancreatitis, Yes (%)” value ([2]; sub-population Cannulation of Pancreatic Duct, N = 220, p 0.1237) was 30 (13.64) % and the “Incidence of Post-ERCP Pancreatitis, No (%)” value ([2]; sub-population Manometry of CBD, N = 19) was 15 (78.95) %. The “Incidence of Post-ERCP Pancreatitis, Yes (%)” value ([2]; sub-population Manometry of CBD, N = 19, p 0.0819) was 4 (21.05) %, the “Incidence of Post-ERCP Pancreatitis, Yes (%)” value ([2]; sub-population Manometry of CBD, N = 19, p 0.0819, listed as sPS) was 21.05% and the “Incidence of Post-ERCP Pancreatitis, No (%)” value ([2]; sub-population Manometry of Pancreatic Duct, N = 11) was 6 (54.58) %. For the same substance, the “Incidence of Post-ERCP Pancreatitis, Yes (%)” value ([2]; sub-population Manometry of Pancreatic Duct, N = 11, p 0.3665) was 5 (45.45) %, the “Incidence of Post-ERCP Pancreatitis, No (%)” value ([2]; sub-population Sphincterotomy of CBD, N = 140) was 133 (95.00) % and the “Incidence of Post-ERCP Pancreatitis, Yes (%)” value ([2]; sub-population Sphincterotomy of CBD, N = 140, p 0.0001) was 7 (5.00) %. For the same substance, the “Incidence of Post-ERCP Pancreatitis, No (%)” value ([2]; sub-population Sphincterotomy of Pancreatic Duct, N = 26) was 14 (57.85) %, the “Incidence of Post-ERCP Pancreatitis, Yes (%)” value ([2]; sub-population Sphincterotomy of Pancreatic Duct, N = 26, p 0.1666) was 12 (46.15) % and the “Incidence of Post-ERCP Pancreatitis, No (%)” value ([2]; sub-population Stent Insertion into CBD, N = 108) was 105 (97.22) %. For the same substance, the “Incidence of Post-ERCP Pancreatitis, Yes (%)” value ([2]; sub-population Stent Insertion into CBD, N = 108, p 0.0856) was 3 (2.78) %, the “Incidence of Post-ERCP Pancreatitis, Yes (%)” value ([2]; sub-population Stent Insertion into CBD, N = 108, p 0.0856, listed as sPS) was 2.78% and the “Incidence of Post-ERCP Pancreatitis, No (%)” value ([2]; sub-population Stent Insertion into Pancreatic Duct, N = 23) was 18 (78.26) %. For the same substance, the “Incidence of Post-ERCP Pancreatitis, Yes (%)” value ([2]; sub-population Stent Insertion into Pancreatic Duct, N = 23, p 1.0000) was 5 (21.74) %, the “Incidence of Post-ERCP Pancreatitis, Yes (%)” value ([2]; sub-population Stent Insertion into Pancreatic Duct, N = 23, p 1.0000, listed as sPS) was 21.7% and the “Incidence of Post-ERCP Pancreatitis, No (%)” value ([2]; sub-population Stent Removal from CBD, N = 58) was 57 (98.28) %. The “Incidence of Post-ERCP Pancreatitis, Yes (%)” value ([2]; sub-population Stent Removal from CBD, N = 58, p 0.6185) was 1 (1.72) %, the “Incidence of Post-ERCP Pancreatitis, No (%)” value ([2]; sub-population Stent Removal from Pancreatic Duct, N = 17) was 15 (88.24) % and the “Incidence of Post-ERCP Pancreatitis, Yes (%)” value ([2]; sub-population Stent Removal from Pancreatic Duct, N = 17, p 1.0000) was 2 (11.76) %. The “Incidence of Post-ERCP Pancreatitis, No (%)” value ([2]; sub-population Stone Extraction (Balloon), N = 55) was 51 (92.73) %, the “Incidence of Post-ERCP Pancreatitis, Yes (%)” value ([2]; sub-population Stone Extraction (Balloon), N = 55, p 1.0000) was 4 (7.27) % and the “Incidence of Post-ERCP Pancreatitis, No (%)” value ([2]; sub-population Stone Extraction (Basket), N = 35) was 34 (97.14) %. The “Incidence of Post-ERCP Pancreatitis, Yes (%)” value ([2]; sub-population Stone Extraction (Basket), N = 35, p 0.2298) was 1 (2.86) %.

From US7381698B2, “Methods for treatment of acute pancreatitis” (ChiRhoClin, Inc., priority 2003, dated 2008)
